# Experimental data taken from US20090076006A1, “HSP90 INHIBITORS CONTAINING A ZINC BINDING MOIETY” (priority 2007, published 2009).
# Experiments:
# HSP90 = molecular target: T1, HSP90 (Homo sapiens, UniProt P07900); test: HSP90 assay (chaperone luciferase refolding / competition binding fluorescence polarization); conditions: Table B does not say which of the two described
# T1 construct: purchased Assay Design SPP-776F
# Experimental: (a) An In Vitro Assay which Determines the Ability of a Test Compound to Inhibit Hsp90 Chaperone Activity.
# The Hsp90 chaperone assay was performed to measure the ability of HSP90 protein to refold the heat-denatured luciferase protein. HSP90 was first incubated with different concentrations of test compounds in denaturation buffer (25 mM Tris, pH7.5, 8 mM MgSO4, 0.01% bovine gamma globulin and 10% glycerol) at room temperature for 30 min. Luciferase protein was added to denaturation mix and incubated at 50° C. for 8 min. The final concentration of HSP90 and luciferase in denaturation mixture were 0.375 μM and 0.125 μM respectively. A 5 μl sample of the denatured mix was diluted into 25 μl of renaturation buffer (25 mM Tris, pH7.5, 8 mM MgSO4, 0.01% bovine gamma globulin and 10% glycerol, 0.5 mM ATP, 2 mM DTT, 5 mM KCl, 0.3 μM HSP70 and 0.15 μM HSP40). The renaturation reaction was incubated at room temperature for 150 min, followed by dilution of 10 μl of the renatured sample into 90 μl of luciferin reagent (Luclite, PerkinElmer Life Science). The mixture was incubated at dark for 5 min before reading the luminescence signal on a TopCount plate reader (PerkinElmer Life Science).
# (b) HSP90 Competition Binding (Fluorescence Polarization) Assay.
# A fluorescein isothiocyanate (FITC) labeled GM was purchase from InvivoGen (ant-fgl-1). The interaction between HSP90 and labeled GM forms the basis for the fluorescence polarization assay. A free and fast-tumbling FITC labeled GM emits random light with respect to the plane of polarization plane of excited light, resulting in a lower polarization degree (mP) value. When GM is bound to HSP90, the complex tumble slower and the emitted light is polarized, resulting in a higher mP value. This competition binding assay was performed in 96-well plate and with each assay contained 10 and 50 nM of labeled GM and purified HSP90 protein (Assay Design, SPP-776F) respectively. The assay buffer contained 20 mM HEPES (pH 7.3), 50 mM KCl, 1 mM DTT, 50 mM MgCl2, 20 mM Na2MoO4, 0.01% NP40 with 0.1 mg/ml bovine gamma-globulin. Compounds are diluted in DMSO and added to the final assay before labeled GM with concentration range from 20 uM to 2 nM. mP value was determined by BioTek Synergy II with background subtraction after 24 hours of incubation at 4° C.
# [1] = system: HDAC (HeLa nuclear extract); test: HDAC fluorimetric assay (inhibition of HDAC enzymatic activity); type: biochemical; conditions: HDAC fluorimetric assay kit
# Experimental: (c) An In Vitro Assay which Determines the Ability of a Test Compound to Inhibit HDAC Enzymatic Activity.
# HDAC inhibitors were screened using an HDAC fluorimetric assay kit (AK-500, Biomol, Plymouth Meeting, Pa.). Test compounds were dissolved in dimethylsulphoxide (DMSO) to give a 20 mM working stock concentration. Fluorescence was measured on a WALLAC Victor 2 plate reader and reported as relative fluorescence units (RFU). Data were plotted using GraphPad Prism (v4.0a) and IC50's calculated using a sigmoidal dose response curve fitting algorithm. Each assay was setup as follows: Defrosted all kit components and kept on ice until use. Diluted HeLa nuclear extract 1:29 in Assay Buffer (50 mM Tris/Cl, pH 8.0, 137 mM NaCl, 2.7 mM KCl, 1 mM MgCl2). Prepared dilutions of Trichostatin A (TSA, positive control) and tested compounds in assay buffer (5× of final concentration). Diluted Fluor de Lys™ Substrate in assay buffer to 100 uM (50 fold=2× final). Diluted Fluor de Lys™ developer concentrate 20-fold (e.g. 50 μl plus 950 μl Assay Buffer) in cold assay buffer. Second, diluted the 0.2 mM Trichostatin A 100-fold in the 1× Developer (e.g. 10 μl in 1 ml; final Trichostatin A concentration in the 1× Developer=2 μM; final concentration after addition to HDAC/Substrate reaction=1 μM). Added Assay buffer, diluted trichostatin A or test inhibitor to appropriate wells of the microtiter plate. Added diluted HeLa extract or other HDAC sample to all wells except for negative controls. Allowed diluted Fluor de Lys™ Substrate and the samples in the microtiter plate to equilibrate to assay temperature (e.g. 25 or 37° C. Initiated HDAC reactions by adding diluted substrate (25 μl) to each well and mixing thoroughly. Allowed HDAC reactions to proceed for 1 hour and then stopped them by addition of Fluor de Lys™ Developer (50 μl). Incubated plate at room temperature (25° C.) for 10-15 min. Read samples in a microtiter-plate reading fluorimeter capable of excitation at a wavelength in the range 350-380 nm and detection of emitted light in the range 440-460 nm.
IC50 (HSP90) [nM],melting point [°C],IC50 [1] [nM],SMILES
≤ 100,164 to 166,100 to 1000,"CC(C)c1cc(-c2onc(C(=O)NCCCCCC(=O)NO)c2-c2ccc(CN3CCOCC3)cc2)c(O)cc1O [Compound 27, 5-(2,4-Dihydroxy-5-isopropylphenyl)-N-(6-(hydroxyamino)-6-oxohexyl)-4-(4-(morpholinomethyl)phenyl)isoxazole-3-carboxamide]"
≤ 100,109 to 111,≤ 100,"CC(C)c1cc(-c2onc(C(=O)NCCCCCCC(=O)NO)c2-c2ccc(CN3CCOCC3)cc2)c(O)cc1O [Compound 28, 5-(2,4-Dihydroxy-5-isopropylphenyl)-N-(7-(hydroxyamino)-7-oxoheptyl)-4-(4-(morpholinomethyl)phenyl)isoxazole-3-carboxamide]"
≤ 100,117 to 119,100 to 1000,"CC(C)c1cc(-c2onc(C(=O)NCCCCCCCC(=O)NO)c2-c2ccc(CN3CCOCC3)cc2)c(O)cc1O [Compound 29, 5-(2,4-Dihydroxy-5-isopropylphenyl)-N-(8-(hydroxyamino)-8-oxooctyl)-4-(4-(morpholinomethyl)phenyl)isoxazole-3-carboxamide]"
